Among the data in PubChem BioAssay (NCI) are GI50 and TGI values, retold here.

Test systems include MALME-3M melanoma; COLO 205 colon; MDA-MB-231 breast; U251 CNS; SW-620 colon; HOP-62 NSCLC; OVCAR-5 ovarian; SNB-19 CNS; TK-10 renal; IGROV1 ovarian.
Holding throughout (experiment): DTP human tumour cell line panel, 48 h

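Tested at 5 concentrations; 48 h exposure; 96-well plates; endpoints linearly interpolated, else capped at highest concentration. GI50 marks 50% less growth. The concentration for full growth arrest is given as TGI.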

Consider `CCCCC1(CN2CCOCC2)S/C(=N/c2nc(CC(=O)OCC)cs2)NC1=O` (stereo not given), for which the GI50 in the experiment with MALME-3M melanoma was 25.4 µM; in the experiment with COLO 205 colon, 30.1 µM; with MDA-MB-231 breast, 25.8 µM; with U251 CNS, 33.9 µM; in the experiment on SW-620 colon it was 35.9 µM; in the experiment on HOP-62 NSCLC it was 44.7 µM. The GI50 in the experiment on OVCAR-5 ovarian was 35.4 µM; with SNB-19 CNS, 38.4 µM; with TK-10 renal it was 31.7 µM; in the experiment with IGROV1 ovarian it was 55.3 µM. Moreover, the total growth inhibition concentration (TGI) was more than 100 µM in the experiment with MALME-3M melanoma; more than 100 µM in the experiment on COLO 205 colon; 74.2 µM with MDA-MB-231 breast; more than 100 µM in the experiment on U251 CNS; more than 100 µM in the experiment on SW-620 colon; more than 100 µM with HOP-62 NSCLC. Besides, the total growth inhibition concentration (TGI) is more than 100 µM in the experiment on OVCAR-5 ovarian, more than 100 µM in the experiment with SNB-19 CNS, 99.1 µM in the experiment on TK-10 renal and more than 100 µM with IGROV1 ovarian.
Consider `C[C@]12CC[C@@H]3c4ccc(O)cc4CC[C@H]3[C@@H]1CC[C@@H]2NS(=O)(=O)c1cccc(F)c1`, for which the GI50 is 2.52 µM in the experiment with MALME-3M melanoma; 1.85 µM in the experiment on COLO 205 colon; 3.64 µM with MDA-MB-231 breast; 3.23 µM in the experiment on U251 CNS; 4.36 µM in the experiment on SW-620 colon; 7.38 µM in the experiment with HOP-62 NSCLC. The GI50 with OVCAR-5 ovarian is 4.35 µM; with SNB-19 CNS, 5.5 µM; in the experiment with TK-10 renal, 4.14 µM; in the experiment with IGROV1 ovarian it was 5.42 µM. In addition, the concentration for total growth inhibition (TGI) is 7.76 µM in the experiment on MALME-3M melanoma; 3.61 µM with COLO 205 colon; 13.6 µM in the experiment with MDA-MB-231 breast; 12.1 µM in the experiment with U251 CNS; 16.8 µM in the experiment on SW-620 colon; 21.9 µM in the experiment with HOP-62 NSCLC. Also, the TGI in the experiment on OVCAR-5 ovarian came to 16.3 µM; in the experiment with SNB-19 CNS, 18.3 µM; in the experiment on TK-10 renal it was 13.8 µM; in the experiment with IGROV1 ovarian, 21.8 µM.
`CC(C)OC(=O)NNc1cc(Cl)ccc1Cl`: the TGI in the experiment with MALME-3M melanoma, with COLO 205 colon, in the experiment on MDA-MB-231 breast, in the experiment with U251 CNS, in the experiment on SW-620 colon and in the experiment on HOP-62 NSCLC was more than 100 µM each time. Further, the TGI in the experiment on OVCAR-5 ovarian, in the experiment with SNB-19 CNS, in the experiment with TK-10 renal and in the experiment with IGROV1 ovarian was more than 100 µM in each case.
In the case of `[Au+].[Au+].[Au+].[c-]1nccn1Cc1ccccc1.[c-]1nccn1Cc1ccccc1.[c-]1nccn1Cc1ccccc1`, the GI50 is 3.35 µM in the experiment on MALME-3M melanoma; 1.74 µM with COLO 205 colon; 22 µM in the experiment with MDA-MB-231 breast; 9.03 µM with U251 CNS; 7.78 µM in the experiment on SW-620 colon; 5.99 µM in the experiment with HOP-62 NSCLC. The GI50 is 27.8 µM in the experiment with OVCAR-5 ovarian, 23.1 µM with SNB-19 CNS, 11.1 µM in the experiment with TK-10 renal and 3.48 µM in the experiment with IGROV1 ovarian. Besides, the total growth inhibition concentration (TGI) was 7.08 µM in the experiment with MALME-3M melanoma; 3.16 µM in the experiment with COLO 205 colon; 70.5 µM in the experiment on MDA-MB-231 breast; more than 19.7 µM in the experiment on SW-620 colon; 28.5 µM with HOP-62 NSCLC; 61.9 µM in the experiment on OVCAR-5 ovarian. Moreover, the results for the total growth inhibition concentration (TGI) with SNB-19 CNS, in the experiment with TK-10 renal and with IGROV1 ovarian were 59 µM, 29.6 µM and 7.92 µM, respectively.
Regarding `COc1cc2c(cc1O)C1Cc3ccc(OC)c(O)c3C(C2)N1C` (stereo not given), the TGI in the experiment on MALME-3M melanoma, with COLO 205 colon, in the experiment on MDA-MB-231 breast, in the experiment on U251 CNS, in the experiment with SW-620 colon and in the experiment on HOP-62 NSCLC was more than 100 µM throughout. Moreover, the TGI in the experiment on OVCAR-5 ovarian, with SNB-19 CNS, with TK-10 renal and in the experiment on IGROV1 ovarian was more than 100 µM throughout.
As for `N=C(N)SCc1cccc(-c2nc3ccccc3c(=O)o2)c1`, the TGI with MALME-3M melanoma, in the experiment with COLO 205 colon, with MDA-MB-231 breast, in the experiment with U251 CNS, in the experiment on SW-620 colon and in the experiment on HOP-62 NSCLC was more than 100 µM each time. The total growth inhibition concentration (TGI) in the experiment on OVCAR-5 ovarian, in the experiment with SNB-19 CNS, in the experiment with TK-10 renal and with IGROV1 ovarian was more than 100 µM each time.
For the compound `C[C@]12CC[C@H](O)C[C@H]1CC[C@@H]1[C@@H]2CC[C@]2(C)[C@@H](C3=CC(=O)OC3)CC[C@]12O`, the TGI was 0.523 µM in the experiment with MALME-3M melanoma; 2.32 µM with COLO 205 colon; more than 62.2 µM in the experiment on MDA-MB-231 breast; 1.52 µM in the experiment with U251 CNS; 1.57 µM in the experiment with SW-620 colon; 0.169 µM in the experiment with HOP-62 NSCLC. The total growth inhibition concentration (TGI) in the experiment with OVCAR-5 ovarian is 1.93 µM; in the experiment with SNB-19 CNS, 2.2 µM; with TK-10 renal, 1.59 µM; in the experiment with IGROV1 ovarian, 2.82 µM. In addition, the GI50 in the experiment with HOP-62 NSCLC was 0.0313 µM.
In the case of `COc1ccc2ncn(-c3cc(O[C@H](C)c4ccccc4Cl)c(C(N)=O)s3)c2c1`, the GI50 in the experiment on MALME-3M melanoma is 8.21 µM; in the experiment with COLO 205 colon, 0.00953 µM; in the experiment with MDA-MB-231 breast, 0.0454 µM; with U251 CNS it was 0.0234 µM; in the experiment on SW-620 colon it was 0.00926 µM; with HOP-62 NSCLC it was 0.0192 µM. For the same compound, the GI50 in the experiment with OVCAR-5 ovarian was 0.0263 µM; with SNB-19 CNS, 0.0814 µM; in the experiment on TK-10 renal, 1.19 µM; in the experiment on IGROV1 ovarian it was 0.0284 µM. Further, the concentration for total growth inhibition (TGI) in the experiment with MALME-3M melanoma was more than 25 µM; with COLO 205 colon, 0.436 µM; in the experiment with MDA-MB-231 breast it was more than 17.3 µM; in the experiment with U251 CNS, more than 25 µM; with SW-620 colon, 3.69 µM; in the experiment with HOP-62 NSCLC, more than 25 µM. In addition, the total growth inhibition concentration (TGI) with OVCAR-5 ovarian is more than 25 µM; in the experiment on SNB-19 CNS, more than 25 µM; in the experiment on TK-10 renal, 11.1 µM; with IGROV1 ovarian, more than 25 µM.
For the compound `CC(=O)/C=C/c1ccc(C#Cc2ccccc2)s1`, the GI50 in the experiment with MALME-3M melanoma was 20.5 µM; with COLO 205 colon it was 16.9 µM; in the experiment with MDA-MB-231 breast, 15 µM; in the experiment on U251 CNS it was 16.8 µM; in the experiment with SW-620 colon it was 19.4 µM; with HOP-62 NSCLC, 19.7 µM. Further, the GI50 is 15.9 µM in the experiment on OVCAR-5 ovarian, 12.7 µM with SNB-19 CNS, 16.8 µM in the experiment with TK-10 renal and 18.3 µM with IGROV1 ovarian. In addition, the TGI turned out to be 40.7 µM in the experiment with MALME-3M melanoma; 31 µM with COLO 205 colon; 28.2 µM in the experiment on MDA-MB-231 breast; 30.5 µM in the experiment with U251 CNS; 38.1 µM in the experiment with SW-620 colon; 33.8 µM in the experiment with HOP-62 NSCLC. In addition, the concentration for total growth inhibition (TGI) in the experiment on OVCAR-5 ovarian worked out at 29.7 µM; with SNB-19 CNS, 25.9 µM; in the experiment with TK-10 renal, 32.9 µM; with IGROV1 ovarian it was 32.2 µM.

What is called GI50 is the concentration at which growth is held to half of that of the control. By TGI is commonly meant the concentration at which net growth stops. A lower TGI goes with greater sensitivity of the cells.
